According to patent US6538152B1, “Phenoxyacetic acid derivatives and medicinal compositions containing the same” (Kissei Pharmaceutical Co., Ltd., priority 1998, dated 2003):
Structures can show the parent of a compound that is named as a salt. Where two headings read alike, the source gives them in different places.

What was measured:
β2-adrenoceptor = target: T1, β2-adrenoceptor (Rattus norvegicus, UniProt P10608); assay: Experiment for measuring β2-adrenoceptor stimulating effects (inhibition of spontaneous contraction of isolated pregnant rat uterus, Magnus method); assay type: cell-based; conditions: isolated uteri of pregnant SD rats (pregnancy day 21), sum of contractions during 5 minutes
T1 construct: Uteri of pregnant SD rats (pregnancy day 21) were isolated; from tissue; host or cells: uterus (myometrium strips) of pregnant SD rats, day 21
Method: Also, uteri of pregnant rats were isolated and preparations were made. The experiment was conducted according to the Magnus method. The sum of uterine contractions during 5 minutes before addition of a test compound was expressed as 100%. The test compound was added cumulatively.
The Experiment for Measuring β2-adrenoceptor Stimulating Effects
Uteri of pregnant SD rats (pregnancy day 21) were isolated and longitudinal strips of approximately 15 mm in length and approximately 5 mm in width free from the basal plate were prepared. The experiment was conducted according to the Magnus method. The preparations with a tension of 0.5 g were exposed to Locke-Ringer solution maintained at 37° C. and gassed with a mixture of 95% oxygen and 5% carbon dioxide. Spontaneous contractions of myometrium were isometrically measured with a force-displacement transducer and recorded. A test compound was cumulatively added to the Magnus bath every 5 minutes.

β3-adrenoceptor = β3-adrenoceptor (Mustela putorius furo, UniProt M3YEU4); assay: Experiment for measuring β3-adrenoceptor stimulating effects (relaxation of isolated ferret urinary bladder smooth muscle, Magnus method); assay type: cell-based; conditions: read-out: EC50 value (concentration required to produce 50% of the relaxation of urinary bladder smooth muscle); isolated male ferret urinary bladder strips; 0% = maximal relaxation by 10^−5M forskolin
Method: Namely, urinary bladders of ferrets were isolated and preparations were made. The experiment was conducted according to the Magnus method. The […] tension without addition of a test compound is expressed as 100%, and the tension of maximal relaxation after addition of 10^−5M forskolin was expressed as 0%. The test compound was added cumulatively.
The Experiment for Measuring β3-adrenoceptor Stimulating Effects
Urinary bladders of male ferrets (1100 to 1400 g in body weight) were isolated and urinary bladder smooth muscle strips of approximately 10 mm in length and approximately 2 mm in width were prepared. The experiment was conducted according to the Magnus method. The preparations with a tension of 1 g were exposed to Krebs-Henseleit solution maintained at 37° C. and gassed with a mixture of 95% oxygen and 5% carbon dioxide. Basal tensions of urinary bladder were isometrically measured with a force-displacement transducer and recorded. A test compound was cumulatively added to the Magnus bath every about 5 minutes. Tension of urinary bladder smooth muscle before addition of the test compound was expressed as 100% and tension of maximal relaxation induced by 10^−5M of forskolin was expressed as 0%.

β1-adrenoceptor = target: T2, β1-adrenoceptor (Rattus norvegicus, UniProt P18090); assay: Experiment for measuring β1-adrenoceptor stimulating effects (heart rate increase in isolated rat atria, Magnus method); assay type: cell-based; conditions: isolated atria of male SD rats, 100% = increase after 10^−8M isoproterenol
T2 construct: Atria of male SD rats (250 to 400 g in body weight) were isolated; from tissue; host or cells: atria of male SD rats
Method: Namely, the experiment was conducted using atria of rats according to the Magnus method. The increment of heart rate after addition of 10^−8M isoproterenol was expressed as 100%. A test compound was added cumulatively.
The Experiment for Measuring β1-adrenoceptor Stimulating Effects
Atria of male SD rats (250 to 400 g in body weight) were isolated and the experiment was conducted according to the Magnus method. The preparations with a tension of 0.5 g were exposed to Krebs-Henseleit solution maintained at 37° C. and gassed with a mixture of 95% oxygen and 5% carbon dioxide. The cardiac contractility was isometrically measured with a force-displacement transducer, and heart rate was recorded via a tachometer. A test compound was added cumulatively. Increase of heart rate per minute after addition of 10^−8M isoproterenol was expressed as 100%.

male ICR rats = assay: Acute toxicity test; assay type: in vivo, rat; conditions: male ICR rats of 4 weeks age, oral, 2 g/kg, during 24 hours after the administration, hydrochloride
Method: Furthermore, the compounds represented by the above general formula (I) of the present invention are very safe.
To male ICR rats of 4 weeks age was administered orally ethyl 2-[2-chloro-4-[2-[[(1S,2R)-2-hydroxy-2-(4-hydroxyphenyl)1-methylethyl]amino]ethyl]phenoxy]acetate hydrochloride at a does of 2 g/kg.

T1 sequence (P10608 whole entry): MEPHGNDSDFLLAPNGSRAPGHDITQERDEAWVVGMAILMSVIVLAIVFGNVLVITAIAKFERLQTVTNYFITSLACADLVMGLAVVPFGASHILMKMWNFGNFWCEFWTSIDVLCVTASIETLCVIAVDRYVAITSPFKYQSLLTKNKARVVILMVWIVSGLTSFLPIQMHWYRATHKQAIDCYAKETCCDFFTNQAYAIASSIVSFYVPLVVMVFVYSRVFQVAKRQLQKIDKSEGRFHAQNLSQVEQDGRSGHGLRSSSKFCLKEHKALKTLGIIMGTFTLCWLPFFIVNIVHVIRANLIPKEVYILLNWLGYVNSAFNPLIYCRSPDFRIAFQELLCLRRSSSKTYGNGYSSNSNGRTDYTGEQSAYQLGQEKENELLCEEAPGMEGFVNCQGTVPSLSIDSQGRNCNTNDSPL
T2 sequence (P18090 whole entry): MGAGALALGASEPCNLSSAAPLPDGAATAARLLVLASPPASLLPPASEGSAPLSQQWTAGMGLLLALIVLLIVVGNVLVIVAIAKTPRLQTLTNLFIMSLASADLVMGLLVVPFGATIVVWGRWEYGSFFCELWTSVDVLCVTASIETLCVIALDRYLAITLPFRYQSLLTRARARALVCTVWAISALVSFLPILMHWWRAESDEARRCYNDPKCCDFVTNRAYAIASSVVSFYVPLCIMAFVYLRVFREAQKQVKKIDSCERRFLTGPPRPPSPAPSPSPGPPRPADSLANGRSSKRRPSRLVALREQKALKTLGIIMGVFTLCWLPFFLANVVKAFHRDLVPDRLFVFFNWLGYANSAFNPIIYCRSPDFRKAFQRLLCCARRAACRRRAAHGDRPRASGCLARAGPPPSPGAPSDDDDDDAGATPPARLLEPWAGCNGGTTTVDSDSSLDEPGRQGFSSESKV
β3-adrenoceptor, sequence (M3YEU4 1-435): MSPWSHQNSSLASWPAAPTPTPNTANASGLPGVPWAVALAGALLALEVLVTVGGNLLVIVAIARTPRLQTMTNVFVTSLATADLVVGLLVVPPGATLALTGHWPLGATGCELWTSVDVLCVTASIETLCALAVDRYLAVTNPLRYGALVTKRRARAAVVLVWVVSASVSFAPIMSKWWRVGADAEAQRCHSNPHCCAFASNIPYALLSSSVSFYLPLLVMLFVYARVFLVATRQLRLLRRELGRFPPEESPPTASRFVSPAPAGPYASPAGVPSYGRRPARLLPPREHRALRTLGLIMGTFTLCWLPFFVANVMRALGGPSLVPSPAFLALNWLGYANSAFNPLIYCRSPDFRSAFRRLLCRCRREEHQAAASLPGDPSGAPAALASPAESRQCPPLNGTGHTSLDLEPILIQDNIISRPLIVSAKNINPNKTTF

SMILES: C[C@H](Cc1ccc(OCC(=O)O)cc1)NC[C@H](O)c1cccc(Cl)c1 [(R,R)-BRL-37344, reference compound]
- EC50 (β2-adrenoceptor; read-out: EC50 value (concentration required to produce 50% of the inhibition of uterine contraction)): 0.009 µM
- EC50 (β3-adrenoceptor): 0.0016 µM
- EC50 (β1-adrenoceptor; read-out: EC50 value (concentration required to produce 50% increase of heart rate per minute)): 0.27 µM

SMILES: C[C@H](NCCc1ccc(OCC(=O)O)c(Br)c1)[C@H](O)c1ccc(O)cc1 [Compound 24]
- EC50 (β2-adrenoceptor): 10 µM
- EC50 (β1-adrenoceptor): > 100 µM

SMILES: C[C@H](NCCc1ccc(OCC(=O)O)c(Cl)c1)[C@H](O)c1ccc(O)cc1 [Compound 25, 2-[2-Chloro-4-[2-[[(1S,2R)-2-hydroxy-2-(4-hydroxyphenyl)-1-methylethyl]amino]ethyl]phenoxy]acetic acid]
- EC50 (β1-adrenoceptor): 70 µM

SMILES: C[C@H](NCCc1cc(Cl)c(OCC(=O)O)c(Cl)c1)[C@H](O)c1ccc(O)cc1 [Compound 26]
- EC50 (β2-adrenoceptor): 1.4 µM
- EC50 (β1-adrenoceptor): > 100 µM

SMILES: C[C@H](NCCc1cc(Cl)c(OCC(=O)O)cc1Cl)[C@H](O)c1ccc(O)cc1 [Compound 27, 2-[2,5-Dichloro-4-[2-[[(1S,2R)-2-hydroxy-2-(4-hydroxyphenyl)-1-methylethyl]amino]ethyl]phenoxy]acetic acid]
- EC50 (β2-adrenoceptor): 0.49 µM
- EC50 (β1-adrenoceptor): 49 µM

SMILES: C[C@H](NCCc1ccc(OCC(=O)O)c(F)c1)[C@H](O)c1ccc(O)cc1 [Compound 28, 2-[2-Fluoro-4-[2-[[(1S,2R)-2-hydroxy-2-(4-hydroxyphenyl)-1-methylethyl]amino]ethyl]phenoxy]acetic acid]
- EC50 (β2-adrenoceptor): 1.8 µM
- EC50 (β1-adrenoceptor): 30 µM

SMILES: COc1cc(CCN[C@@H](C)[C@H](O)c2ccc(O)cc2)ccc1OCC(=O)O [Compound 29, 2-(4-[2-[[(1S,2R)-2-Hydroxy-2-(4-hydroxyphenyl)-1-methylethyl]amino]ethyl]-2-methoxyphenoxy]acetic acid]
- EC50 (β2-adrenoceptor): 3.9 µM
- EC50 (β1-adrenoceptor): > 100 µM

SMILES: CCOc1cc(CCN[C@@H](C)[C@H](O)c2ccc(O)cc2)ccc1OCC(=O)O [Compound 30, 2-[2-Ethoxy-4-[2-[[(1S,2R)-2-hydroxy-2-(4-hydroxyphenyl)-1-methylethyl]amino]ethyl]phenoxy]acetic acid]
- EC50 (β2-adrenoceptor): 25 µM
- EC50 (β1-adrenoceptor): > 100 µM

SMILES: C[C@H](NCCc1ccc(OCC(=O)O)c(OCc2ccccc2)c1)[C@H](O)c1ccc(O)cc1 [Compound 31, 2-[2-Benzyloxy-4-[2-[[(1S,2R)-2-hydroxy-2-(4-hydroxyphenyl)-1-methylethyl]amino]ethyl]phenoxy]acetic acid]
- EC50 (β2-adrenoceptor): 1.9 µM
- EC50 (β1-adrenoceptor): > 100 µM

SMILES: Cc1cc(CCN[C@@H](C)[C@H](O)c2ccc(O)cc2)ccc1OCC(=O)O [Compound 33]
- EC50 (β2-adrenoceptor): 13 µM
- EC50 (β1-adrenoceptor): 31 µM

SMILES: Cc1cc(OCC(=O)O)c(C)cc1CCN[C@@H](C)[C@H](O)c1ccc(O)cc1 [Compound 35, 2-[4-[2-[[(1S,2R)-2-Hydroxy-2-(4-hydroxyphenyl)-1-methylethyl]amino]ethyl]-2,5-dimethylphenoxy]acetic acid]
- EC50 (β2-adrenoceptor): 1.8 µM
- EC50 (β1-adrenoceptor): 38 µM

SMILES: C[C@H](NCCc1ccc(OCC(=O)O)c(C(F)(F)F)c1)[C@H](O)c1ccc(O)cc1 [Compound 36, 2-[4-[2-[[(1S,2R)-2-Hydroxy-2-(4-hydroxyphenyl)-1-methylethyl]amino]ethyl]-2-(trifluoromethyl)phenoxy]acetic acid hydrochloride]
- EC50 (β2-adrenoceptor): 20 µM
- EC50 (β1-adrenoceptor): > 100 µM

SMILES: C[C@H](NCCc1ccc(OCC(=O)O)c(C#N)c1)[C@H](O)c1ccc(O)cc1 [Compound 37, 2-[2-Cyano-4-[2-[[(1S,2R)-2-hydroxy-2-(4-hydroxyphenyl)-1-methylethyl]amino]ethyl]phenoxy]acetic acid]
- EC50 (β2-adrenoceptor): 76 µM
- EC50 (β1-adrenoceptor): 33 µM

SMILES: C[C@H](NCCc1ccc(OCC(=O)O)c([N+](=O)[O-])c1)[C@H](O)c1ccc(O)cc1 [Compound 38, 2-[4-[2-[[(1S,2R)-2-Hydroxy-2-(4-hydroxyphenyl)-1-methylethyl]amino]ethyl]-2-nitrophenoxy]acetic acid]
- EC50 (β2-adrenoceptor): 2.6 µM
- EC50 (β1-adrenoceptor): 58 µM

SMILES: CCOC(=O)COc1ccc(CCN[C@@H](C)[C@H](O)c2ccc(O)cc2)cc1NC=O [Compound 40, Ethyl 2-[2-Formylamino-4-[2-[[(1S,2R)-2-hydroxy-2-(4-hydroxyphenyl)-1-methylethyl]amino]ethyl]phenoxy]acetate]
- EC50 (β2-adrenoceptor): 1 µM
- EC50 (β1-adrenoceptor): 3.5 µM

SMILES: C[C@H](NCCc1ccc(OCC(=O)O)c(C(=O)N(C)C)c1)[C@H](O)c1ccc(O)cc1 [Compound 43, 2-[2-(Dimethylaminocarbonyl)-4-[2-[[(1S,2R)-2-hydroxy-2-(4-hydroxyphenyl)-1-methylethyl]amino]ethyl]phenoxy]acetic acid]
- EC50 (β2-adrenoceptor): 53 µM
- EC50 (β1-adrenoceptor): 58 µM

SMILES: C[C@H](NCCc1ccc(OCC(=O)O)c(O)c1)[C@H](O)c1ccc(O)cc1 [Compound 46, 2-[2-Hydroxy-4-[2-[[(1S,2R)-2-hydroxy-2-(4-hydroxyphenyl)-1-methylethyl]amino]ethyl]phenoxy]acetic acid]
- EC50 (β2-adrenoceptor): 0.21 µM
- EC50 (β1-adrenoceptor): 21 µM

SMILES: C[C@H](NCCc1ccc(OCC(=O)O)c(N(C)C)c1)[C@H](O)c1ccc(O)cc1 [Compound 47, 2-[2-Dimethylamino-4-[2-[[(1S,2R)-2-hydroxy-2-(4-hydroxyphenyl)-1-methylethyl]amino]ethyl]phenoxy]acetic acid]
- EC50 (β2-adrenoceptor): 17 µM
- EC50 (β1-adrenoceptor): > 100 µM

SMILES: CCOC(=O)COc1ccc(CCN[C@@H](C)[C@H](O)c2ccc(O)cc2)cc1Cl.Cl [Compound 48, Ethyl 2-[2-chloro-4-[2-[[(1S,2R)-2-hydroxy-2-(4-hydroxyphenyl)-1-methylethyl]amino]ethyl]phenoxy]acetate hydrochloride]
- Death of animals (acute toxicity) (male ICR rats; listed as ethyl 2-[2-chloro-4-[2-[[(1S,2R)-2-hydroxy-2-(4-hydroxyphenyl)1-methylethyl]amin): No death of animals was observed
- Death of animals (acute toxicity) (male ICR rats; listed as ethyl 2-[2-chloro-4-[2-[[(1S,2R)-2-hydroxy-2-(4-hydroxyphenyl)-1-methylethyl]ami): no death was observed
- EC50 (β1-adrenoceptor): 17 µM

SMILES: CCOC(=O)COc1cc(Cl)c(CCN[C@@H](C)[C@H](O)c2ccc(O)cc2)cc1Cl [Compound 49, Ethyl 2-[2,5-dichloro-4-[2-[[(1S,2R)-2-hydroxy-2-(4-hydroxyphenyl)-1-methylethyl]amino]ethyl]phenoxy]acetate hydrochloride]
- EC50 (β2-adrenoceptor): 0.061 µM
- EC50 (β1-adrenoceptor): 6.8 µM
